Legend:
[1] = molecular target: T1, Adenosine receptor A2b (Homo sapiens) (UniProt P29275); assay: A2B (h) Eurofins-Cerep Cellular and Nuclear Receptor Functional Assays; conditions: Compound concentration 10.0 uM
T1 sequence (whole entry): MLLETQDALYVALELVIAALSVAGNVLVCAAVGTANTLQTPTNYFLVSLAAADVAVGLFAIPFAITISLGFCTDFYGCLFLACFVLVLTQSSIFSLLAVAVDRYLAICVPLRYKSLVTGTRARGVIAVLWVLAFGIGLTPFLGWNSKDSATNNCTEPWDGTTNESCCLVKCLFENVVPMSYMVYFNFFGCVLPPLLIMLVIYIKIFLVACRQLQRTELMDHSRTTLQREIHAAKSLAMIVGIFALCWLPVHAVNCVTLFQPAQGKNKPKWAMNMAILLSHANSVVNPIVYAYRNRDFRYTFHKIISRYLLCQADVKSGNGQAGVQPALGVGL

[2] = molecular target: D(2) dopamine receptor (Homo sapiens) (UniProt P14416); assay: D2s (h) Eurofins-Cerep Cellular and Nuclear Receptor Functional Assays; conditions: Compound concentration 10.0 uM
Sequence of D(2) dopamine receptor (Homo sapiens) (P14416 whole entry): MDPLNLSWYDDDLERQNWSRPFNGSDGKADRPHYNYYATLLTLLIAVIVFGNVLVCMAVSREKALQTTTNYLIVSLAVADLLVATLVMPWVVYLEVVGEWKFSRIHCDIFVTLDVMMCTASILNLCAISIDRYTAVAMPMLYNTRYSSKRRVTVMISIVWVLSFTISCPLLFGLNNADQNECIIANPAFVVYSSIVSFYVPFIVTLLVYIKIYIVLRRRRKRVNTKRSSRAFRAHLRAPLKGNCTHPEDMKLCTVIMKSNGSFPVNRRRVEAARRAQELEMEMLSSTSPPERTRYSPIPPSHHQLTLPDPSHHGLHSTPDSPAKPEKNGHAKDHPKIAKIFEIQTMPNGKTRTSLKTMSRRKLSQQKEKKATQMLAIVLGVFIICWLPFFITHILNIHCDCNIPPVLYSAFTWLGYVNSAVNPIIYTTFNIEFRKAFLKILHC

[3] = system: Tyrosine-protein kinase ABL1 (Homo sapiens), P00519 [F317L]; conditions: Compound concentration 1000.0 nM
[4] = system: Tyrosine-protein kinase ABL1 (Homo sapiens), P00519 [M351T]; conditions: Compound concentration 1000.0 nM
[5] = molecular target: Atypical kinase COQ8B, mitochondrial (Homo sapiens) (UniProt Q96D53); conditions: Compound concentration 1000.0 nM
[6] = molecular target: RAC-alpha serine/threonine-protein kinase (Homo sapiens) (UniProt P31749); conditions: Compound concentration 1000.0 nM
[7] = system: ALK tyrosine kinase receptor (Homo sapiens), Q9UM73 [L1196M]; conditions: Compound concentration 1000.0 nM
[8] = molecular target: Serine/threonine-protein kinase B-raf (Homo sapiens) (UniProt P15056); conditions: Compound concentration 1000.0 nM
[9] = molecular target: Peripheral plasma membrane protein CASK (Homo sapiens) (UniProt O14936); conditions: Compound concentration 1000.0 nM
[10] = molecular target: Cyclin-dependent kinase 11B (Homo sapiens) (UniProt P21127); conditions: Compound concentration 1000.0 nM
[11] = molecular target: Cyclin-dependent kinase 9 (Homo sapiens) (UniProt P50750); conditions: Compound concentration 1000.0 nM
[12] = molecular target: Dual specificity tyrosine-phosphorylation-regulated kinase 2 (Homo sapiens) (UniProt Q92630); conditions: Compound concentration 1000.0 nM
[13] = system: Epidermal growth factor receptor (Homo sapiens), P00533 [UNDEFINED MUTATION]; conditions: Compound concentration 1000.0 nM
[14] = system: Epidermal growth factor receptor (Homo sapiens), P00533 [L861Q]; conditions: Compound concentration 1000.0 nM
[15] = molecular target: Tyrosine-protein kinase JAK3 (Homo sapiens) (UniProt P52333); conditions: Compound concentration 1000.0 nM
Sequence of Tyrosine-protein kinase JAK3 (Homo sapiens) (P52333 whole entry): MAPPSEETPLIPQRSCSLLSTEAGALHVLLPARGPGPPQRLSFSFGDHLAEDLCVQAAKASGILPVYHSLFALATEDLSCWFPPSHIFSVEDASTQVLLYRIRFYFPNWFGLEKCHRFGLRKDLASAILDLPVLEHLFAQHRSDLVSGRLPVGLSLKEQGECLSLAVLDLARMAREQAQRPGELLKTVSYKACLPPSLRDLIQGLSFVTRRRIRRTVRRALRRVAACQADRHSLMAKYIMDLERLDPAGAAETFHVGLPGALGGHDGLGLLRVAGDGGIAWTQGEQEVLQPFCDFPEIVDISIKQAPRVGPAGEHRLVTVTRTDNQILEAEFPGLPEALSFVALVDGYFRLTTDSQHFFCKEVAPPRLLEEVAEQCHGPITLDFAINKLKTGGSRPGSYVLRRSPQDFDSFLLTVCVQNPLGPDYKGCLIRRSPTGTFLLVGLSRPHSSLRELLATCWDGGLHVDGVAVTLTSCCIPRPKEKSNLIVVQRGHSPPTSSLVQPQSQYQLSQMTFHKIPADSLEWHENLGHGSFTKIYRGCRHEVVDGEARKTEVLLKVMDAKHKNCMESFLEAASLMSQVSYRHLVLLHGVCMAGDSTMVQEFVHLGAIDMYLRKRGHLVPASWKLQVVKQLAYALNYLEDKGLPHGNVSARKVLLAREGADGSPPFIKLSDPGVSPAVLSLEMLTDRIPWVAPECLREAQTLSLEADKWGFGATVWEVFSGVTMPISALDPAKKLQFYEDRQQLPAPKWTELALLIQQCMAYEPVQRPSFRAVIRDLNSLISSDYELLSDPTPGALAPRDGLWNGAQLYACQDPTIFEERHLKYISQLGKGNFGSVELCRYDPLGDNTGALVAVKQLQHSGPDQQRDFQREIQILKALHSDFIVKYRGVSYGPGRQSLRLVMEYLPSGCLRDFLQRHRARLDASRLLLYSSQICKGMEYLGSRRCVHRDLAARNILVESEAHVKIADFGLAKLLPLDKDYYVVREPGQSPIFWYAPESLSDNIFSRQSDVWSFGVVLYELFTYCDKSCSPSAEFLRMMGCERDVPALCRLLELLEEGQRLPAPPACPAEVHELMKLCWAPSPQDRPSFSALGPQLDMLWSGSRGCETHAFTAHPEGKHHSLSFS

[16] = system: Mast/stem cell growth factor receptor Kit (Homo sapiens), P10721 [D816V]; conditions: Compound concentration 1000.0 nM
[17] = molecular target: LIM domain kinase 2 (Homo sapiens) (UniProt P53671); conditions: Compound concentration 1000.0 nM
[18] = molecular target: Mitogen-activated protein kinase kinase kinase 3 (Homo sapiens) (UniProt Q99759); conditions: Compound concentration 1000.0 nM
[19] = molecular target: Mitogen-activated protein kinase kinase kinase kinase 2 (Homo sapiens) (UniProt Q12851); conditions: Compound concentration 1000.0 nM
Sequence of Mitogen-activated protein kinase kinase kinase kinase 2 (Homo sapiens) (Q12851 whole entry): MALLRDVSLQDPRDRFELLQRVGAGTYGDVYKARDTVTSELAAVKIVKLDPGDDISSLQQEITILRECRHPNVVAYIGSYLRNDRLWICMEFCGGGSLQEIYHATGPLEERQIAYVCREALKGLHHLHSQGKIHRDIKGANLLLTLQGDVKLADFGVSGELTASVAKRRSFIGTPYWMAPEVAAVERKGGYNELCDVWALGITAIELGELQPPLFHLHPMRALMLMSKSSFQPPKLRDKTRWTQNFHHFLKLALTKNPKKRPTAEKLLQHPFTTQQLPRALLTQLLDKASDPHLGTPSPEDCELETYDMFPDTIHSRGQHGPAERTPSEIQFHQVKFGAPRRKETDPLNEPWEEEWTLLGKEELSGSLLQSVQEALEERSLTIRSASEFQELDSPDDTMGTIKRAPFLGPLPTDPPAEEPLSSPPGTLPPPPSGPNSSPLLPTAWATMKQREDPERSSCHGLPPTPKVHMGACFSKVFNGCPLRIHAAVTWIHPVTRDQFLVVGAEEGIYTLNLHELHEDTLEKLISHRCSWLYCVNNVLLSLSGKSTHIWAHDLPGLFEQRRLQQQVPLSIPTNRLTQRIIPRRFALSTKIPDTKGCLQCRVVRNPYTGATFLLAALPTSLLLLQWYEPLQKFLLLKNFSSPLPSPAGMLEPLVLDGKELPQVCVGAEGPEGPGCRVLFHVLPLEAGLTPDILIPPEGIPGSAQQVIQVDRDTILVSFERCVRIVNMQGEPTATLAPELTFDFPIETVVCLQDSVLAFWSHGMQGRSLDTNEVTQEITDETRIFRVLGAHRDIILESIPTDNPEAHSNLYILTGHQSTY

[20] = molecular target: Dual specificity mitogen-activated protein kinase kinase 3 (Homo sapiens) (UniProt P46734); conditions: Compound concentration 1000.0 nM
Sequence of Dual specificity mitogen-activated protein kinase kinase 3 (Homo sapiens) (P46734 whole entry): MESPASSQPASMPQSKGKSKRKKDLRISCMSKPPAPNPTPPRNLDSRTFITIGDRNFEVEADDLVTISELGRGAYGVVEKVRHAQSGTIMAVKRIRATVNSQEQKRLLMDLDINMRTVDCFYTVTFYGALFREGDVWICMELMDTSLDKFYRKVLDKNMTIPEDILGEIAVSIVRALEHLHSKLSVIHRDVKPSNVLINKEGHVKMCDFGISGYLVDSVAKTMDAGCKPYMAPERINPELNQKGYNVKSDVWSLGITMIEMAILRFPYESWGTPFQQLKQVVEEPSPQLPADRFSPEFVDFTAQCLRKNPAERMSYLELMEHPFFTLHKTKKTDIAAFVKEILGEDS

[21] = molecular target: MAP kinase-interacting serine/threonine-protein kinase 1 (Homo sapiens) (UniProt Q9BUB5); conditions: Compound concentration 1000.0 nM
[22] = molecular target: Myosin-IIIa (Homo sapiens) (UniProt Q8NEV4); conditions: Compound concentration 1000.0 nM
[23] = molecular target: Serine/threonine-protein kinase 38 (Homo sapiens) (UniProt Q15208); conditions: Compound concentration 1000.0 nM
[24] = molecular target: Mitogen-activated protein kinase kinase kinase 14 (Homo sapiens) (UniProt Q99558); conditions: Compound concentration 1000.0 nM
[25] = molecular target: Cyclin-dependent kinase 16 (Homo sapiens) (UniProt Q00536); conditions: Compound concentration 1000.0 nM
[26] = molecular target: Cyclin-dependent kinase 17 (Homo sapiens) (UniProt Q00537); conditions: Compound concentration 1000.0 nM
Sequence of Cyclin-dependent kinase 17 (Homo sapiens) (Q00537 whole entry, looked up): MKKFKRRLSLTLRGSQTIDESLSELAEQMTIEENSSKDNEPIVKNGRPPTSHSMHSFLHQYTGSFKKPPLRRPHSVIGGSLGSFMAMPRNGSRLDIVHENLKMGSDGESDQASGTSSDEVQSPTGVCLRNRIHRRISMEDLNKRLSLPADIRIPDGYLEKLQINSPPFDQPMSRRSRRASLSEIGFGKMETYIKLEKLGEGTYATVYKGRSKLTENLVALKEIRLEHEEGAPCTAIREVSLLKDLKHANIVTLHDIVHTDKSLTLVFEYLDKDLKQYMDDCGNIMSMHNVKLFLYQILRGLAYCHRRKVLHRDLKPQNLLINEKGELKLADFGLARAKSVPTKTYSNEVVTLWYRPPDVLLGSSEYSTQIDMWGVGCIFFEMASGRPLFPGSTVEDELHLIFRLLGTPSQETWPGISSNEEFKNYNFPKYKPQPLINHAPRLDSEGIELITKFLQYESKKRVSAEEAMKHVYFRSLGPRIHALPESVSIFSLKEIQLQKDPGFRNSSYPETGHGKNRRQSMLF

[27] = molecular target: Cyclin-dependent kinase 18 (Homo sapiens) (UniProt Q07002); conditions: Compound concentration 1000.0 nM
[28] = molecular target: Phosphorylase b kinase gamma catalytic chain, skeletal muscle/heart isoform (Homo sapiens) (UniProt Q16816); conditions: Compound concentration 1000.0 nM
[29] = molecular target: Phosphatidylinositol 4-phosphate 5-kinase type-1 alpha (Homo sapiens) (UniProt Q99755); conditions: Compound concentration 1000.0 nM
[30] = molecular target: Serine/threonine-protein kinase PLK3 (Homo sapiens) (UniProt Q9H4B4); conditions: Compound concentration 1000.0 nM
[31] = molecular target: cGMP-dependent protein kinase 1 (Homo sapiens) (UniProt Q13976); conditions: Compound concentration 1000.0 nM
[32] = molecular target: Proto-oncogene tyrosine-protein kinase receptor Ret (Homo sapiens) (UniProt P07949); conditions: Compound concentration 1000.0 nM
[33] = molecular target: Serine/threonine-protein kinase RIO3 (Homo sapiens) (UniProt O14730); conditions: Compound concentration 1000.0 nM
[34] = molecular target: NUAK family SNF1-like kinase 2 (Homo sapiens) (UniProt Q9H093); conditions: Compound concentration 1000.0 nM
[35] = molecular target: Serine/threonine-protein kinase TAO3 (Homo sapiens) (UniProt Q9H2K8); conditions: Compound concentration 1000.0 nM
Sequence of Serine/threonine-protein kinase TAO3 (Homo sapiens) (Q9H2K8 whole entry): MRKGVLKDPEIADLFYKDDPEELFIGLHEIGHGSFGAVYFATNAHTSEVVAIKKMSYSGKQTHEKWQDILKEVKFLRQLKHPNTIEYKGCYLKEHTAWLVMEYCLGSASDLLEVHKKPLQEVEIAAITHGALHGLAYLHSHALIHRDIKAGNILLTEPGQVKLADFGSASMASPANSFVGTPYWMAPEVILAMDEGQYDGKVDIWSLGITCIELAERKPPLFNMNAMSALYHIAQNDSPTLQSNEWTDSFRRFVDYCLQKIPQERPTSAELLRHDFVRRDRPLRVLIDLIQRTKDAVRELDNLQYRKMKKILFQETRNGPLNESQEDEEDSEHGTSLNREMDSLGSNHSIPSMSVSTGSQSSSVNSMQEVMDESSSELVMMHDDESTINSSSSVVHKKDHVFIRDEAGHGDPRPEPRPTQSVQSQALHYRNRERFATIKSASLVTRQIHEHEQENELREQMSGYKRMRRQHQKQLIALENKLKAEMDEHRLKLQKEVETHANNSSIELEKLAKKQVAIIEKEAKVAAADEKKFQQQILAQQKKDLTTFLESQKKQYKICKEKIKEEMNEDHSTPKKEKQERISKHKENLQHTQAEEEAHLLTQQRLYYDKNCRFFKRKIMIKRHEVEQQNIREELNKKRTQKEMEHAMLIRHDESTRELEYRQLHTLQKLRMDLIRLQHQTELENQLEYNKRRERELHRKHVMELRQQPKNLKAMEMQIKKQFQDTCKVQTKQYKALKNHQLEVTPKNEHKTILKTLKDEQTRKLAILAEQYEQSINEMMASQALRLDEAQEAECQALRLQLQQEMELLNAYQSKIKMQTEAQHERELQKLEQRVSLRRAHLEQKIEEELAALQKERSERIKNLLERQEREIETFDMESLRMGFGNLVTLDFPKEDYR

[36] = molecular target: Activated CDC42 kinase 1 (Homo sapiens) (UniProt Q07912); conditions: Compound concentration 1000.0 nM
[37] = molecular target: NT-3 growth factor receptor (Homo sapiens) (UniProt Q16288); conditions: Compound concentration 1000.0 nM
Sequence of NT-3 growth factor receptor (Homo sapiens) (Q16288 32-839 limits assumed): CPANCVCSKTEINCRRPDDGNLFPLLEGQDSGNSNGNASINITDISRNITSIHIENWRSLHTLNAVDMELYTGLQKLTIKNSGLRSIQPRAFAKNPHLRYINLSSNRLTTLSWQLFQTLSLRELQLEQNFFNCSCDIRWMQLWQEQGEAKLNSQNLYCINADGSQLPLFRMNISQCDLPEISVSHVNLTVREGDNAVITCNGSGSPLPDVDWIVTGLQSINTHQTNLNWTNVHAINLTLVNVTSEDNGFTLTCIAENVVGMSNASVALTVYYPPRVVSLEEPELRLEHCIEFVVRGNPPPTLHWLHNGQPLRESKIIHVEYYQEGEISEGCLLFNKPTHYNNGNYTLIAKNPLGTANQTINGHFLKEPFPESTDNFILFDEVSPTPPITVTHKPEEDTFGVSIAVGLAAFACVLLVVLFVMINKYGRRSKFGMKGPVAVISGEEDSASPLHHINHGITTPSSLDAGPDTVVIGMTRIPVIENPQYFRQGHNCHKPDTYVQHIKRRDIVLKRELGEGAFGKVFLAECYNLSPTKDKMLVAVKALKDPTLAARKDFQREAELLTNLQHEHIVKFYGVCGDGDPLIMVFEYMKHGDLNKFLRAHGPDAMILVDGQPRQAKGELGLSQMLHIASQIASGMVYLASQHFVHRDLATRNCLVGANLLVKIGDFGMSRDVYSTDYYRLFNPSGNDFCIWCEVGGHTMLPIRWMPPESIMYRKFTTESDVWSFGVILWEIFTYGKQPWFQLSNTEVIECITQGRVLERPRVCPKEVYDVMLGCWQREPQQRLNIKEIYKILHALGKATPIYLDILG

[38] = molecular target: Serine/threonine-protein kinase ULK2 (Homo sapiens) (UniProt Q8IYT8); conditions: Compound concentration 1000.0 nM
[39] = molecular target: Wee1-like protein kinase 2 (Homo sapiens) (UniProt P0C1S8); conditions: Compound concentration 1000.0 nM
[40] = molecular target: Serine/threonine-protein kinase 32B (Homo sapiens) (UniProt Q9NY57); conditions: Compound concentration 1000.0 nM

O=C(N1CCS(=O)(=O)CC1)N1C[C@H](c2ccc(OC(F)(F)F)cc2)C[C@H](c2nc(C3CC3)no2)C1 [BAY-386]
3.5%: % of Control Agonist Response (Mean n=2) [1]
inactive: residual activity [3] 92% | residual activity [4] 100% | residual activity [5] 73% | residual activity [6] 96% | residual activity [7] 65% | residual activity [8] 100% | residual activity [9] 100% | residual activity [10] 100% | residual activity [11] 100% | residual activity [12] 100% | residual activity [13] 92% | residual activity [14] 68% | residual activity [15] 100% | residual activity [16] 100% | residual activity [17] 95% | residual activity [18] 100% | residual activity [19] 94% | residual activity [20] 100% | residual activity [21] 100% | residual activity [22] 100% | residual activity [23] 100% | residual activity [24] 87% | residual activity [25] 100% | residual activity [26] 98% | residual activity [28] 94% | residual activity [29] 100% | residual activity [30] 98% | residual activity [31] 100% | residual activity [32] 93% | residual activity [33] 85% | residual activity [34] 100% | residual activity [35] 100% | residual activity [36] 97% | residual activity [37] 100% | residual activity [38] 75% | residual activity [39] 100% | residual activity [40] 100%
active: residual activity [27] 0%
4%: % of Control Agonist Response (Mean n=2) [2]
6.6%: % Inhibition of Control Agonist Response (Mean n=2) [2]
-0.3%: % Inhibition of Control Agonist Response (Mean n=2) [1]

Cc1noc([C@H]2C[C@@H](c3ccc(C(F)(F)F)cc3)CN(C(=O)N3CCS(=O)(=O)C3)C2)n1 [BAY-448]
3.1%: % of Control Agonist Response (Mean n=2) [2]
8.6%: % Inhibition of Control Agonist Response (Mean n=2) [2]
-8.5%: % Inhibition of Control Agonist Response (Mean n=2) [1]
inactive: residual activity [3] 85% | residual activity [4] 84% | residual activity [5] 100% | residual activity [6] 90% | residual activity [7] 100% | residual activity [8] 97% | residual activity [9] 93% | residual activity [10] 100% | residual activity [11] 100% | residual activity [12] 100% | residual activity [13] 67% | residual activity [14] 78% | residual activity [15] 100% | residual activity [16] 100% | residual activity [17] 100% | residual activity [18] 84% | residual activity [19] 100% | residual activity [20] 98% | residual activity [21] 99% | residual activity [22] 100% | residual activity [23] 100% | residual activity [24] 91% | residual activity [25] 100% | residual activity [26] 100% | residual activity [27] 97% | residual activity [28] 100% | residual activity [29] 88% | residual activity [30] 88% | residual activity [31] 100% | residual activity [32] 100% | residual activity [33] 100% | residual activity [34] 100% | residual activity [35] 100% | residual activity [36] 100% | residual activity [37] 100% | residual activity [38] 100% | residual activity [39] 100% | residual activity [40] 68%
1.5%: % of Control Agonist Response (Mean n=2) [1]
